# Where two headings read alike, the source gives them in different places.
# Assays:
# XO = conditions: cited from earlier work; for IC50: XO inhibition
# xanthine oxidase [1] = molecular target: T1, xanthine oxidase (Bos taurus, UniProt P80457); assay: Fixed-ratio combination analysis on XO; conditions: for EC90: read-out: EC90 dose; for DRI: in techtochrysin + allopurinol combination
# xanthine oxidase [2] = molecular target: T1, xanthine oxidase; assay: In vitro xanthine oxidase inhibitory assay; assay type: biochemical, bovine
# [3] = Dm (median-effect dose), antilog of x-intercept of median-effect plot, CompuSyn
# [4] = EC50 dose, single agent, dose for 50% inhibition of XO activity
# [5] = single agent, dose for 10% inhibition of XO activity
# [6] = single agent, dose for 30% inhibition of XO activity
# [7] = single agent, dose for 70% inhibition of XO activity
# T1 sequence (P80457 whole entry): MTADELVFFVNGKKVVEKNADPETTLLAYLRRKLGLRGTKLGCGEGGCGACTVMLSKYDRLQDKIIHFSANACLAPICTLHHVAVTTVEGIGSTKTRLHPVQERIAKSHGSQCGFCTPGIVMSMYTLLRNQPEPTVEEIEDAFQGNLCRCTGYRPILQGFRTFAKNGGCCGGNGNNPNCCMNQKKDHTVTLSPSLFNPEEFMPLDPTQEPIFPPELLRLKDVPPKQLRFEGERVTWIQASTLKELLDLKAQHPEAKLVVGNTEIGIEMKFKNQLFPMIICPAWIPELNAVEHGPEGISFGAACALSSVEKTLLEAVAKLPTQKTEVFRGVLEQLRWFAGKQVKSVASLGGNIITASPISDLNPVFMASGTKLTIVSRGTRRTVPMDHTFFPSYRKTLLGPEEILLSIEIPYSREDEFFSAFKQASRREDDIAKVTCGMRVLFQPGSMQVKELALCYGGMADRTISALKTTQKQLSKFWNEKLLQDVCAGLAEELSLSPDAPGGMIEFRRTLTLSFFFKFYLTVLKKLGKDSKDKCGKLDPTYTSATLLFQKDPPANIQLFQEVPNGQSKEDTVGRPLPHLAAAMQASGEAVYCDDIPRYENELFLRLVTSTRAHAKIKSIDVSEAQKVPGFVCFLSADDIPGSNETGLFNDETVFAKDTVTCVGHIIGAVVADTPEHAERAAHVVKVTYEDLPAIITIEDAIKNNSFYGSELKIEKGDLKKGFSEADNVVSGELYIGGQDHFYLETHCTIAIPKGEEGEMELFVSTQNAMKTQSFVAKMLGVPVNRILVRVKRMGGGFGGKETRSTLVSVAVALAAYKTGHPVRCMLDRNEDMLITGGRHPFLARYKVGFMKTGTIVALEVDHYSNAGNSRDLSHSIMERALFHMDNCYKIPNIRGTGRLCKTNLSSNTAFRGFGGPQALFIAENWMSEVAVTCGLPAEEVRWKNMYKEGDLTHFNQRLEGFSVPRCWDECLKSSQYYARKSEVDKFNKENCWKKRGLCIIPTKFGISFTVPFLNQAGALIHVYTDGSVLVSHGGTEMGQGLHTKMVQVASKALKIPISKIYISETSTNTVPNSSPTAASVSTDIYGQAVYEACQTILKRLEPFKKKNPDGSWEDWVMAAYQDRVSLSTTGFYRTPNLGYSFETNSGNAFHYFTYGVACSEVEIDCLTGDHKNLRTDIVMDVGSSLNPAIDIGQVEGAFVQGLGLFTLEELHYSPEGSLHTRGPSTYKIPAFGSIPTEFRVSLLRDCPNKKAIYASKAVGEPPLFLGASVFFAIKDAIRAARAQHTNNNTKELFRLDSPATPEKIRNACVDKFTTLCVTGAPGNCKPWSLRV
smiles,measurement,setting,value
"Oc1ncnc2[nH]ncc12 [Allopurinol, allopurinol, reference compound]",IC50,XO,13200 nM
same,EC10 dose,xanthine oxidase [1],180 nM
same,EC30 dose,xanthine oxidase [1],420 nM
same,EC70 dose,xanthine oxidase [1],1840 nM
same,m (slope of the median-effect plot),xanthine oxidase [1],1.44
same,EC90,xanthine oxidase [1],4050 nM
"O=c1cc(-c2ccc(O)cc2)oc2cc(O)cc(O)c12 [Apigenin, apigenin]",IC50,XO,6330 nM
same,type of XO inhibition,XO,competitive
"Cc1nc(-c2ccc(OCC(C)C)c(C#N)c2)sc1C(=O)O [Febuxostat, febuxostat, reference compound]",EC10 dose,xanthine oxidase [1],5 nM
same,EC30 dose,xanthine oxidase [1],15 nM
same,EC70 dose,xanthine oxidase [1],40 nM
same,m (slope of the median-effect plot),xanthine oxidase [1],1.57
same,EC90,xanthine oxidase [1],120 nM
"O=c1c(O)c(-c2ccccc2)oc2cc(O)cc(O)c12 [Galangin, galangin]",type of XO inhibition,XO,competitive
"O=c1cc(-c2ccc(O)c(O)c2)oc2cc(O)cc(O)c12 [Luteolin, luteolin]",IC50,XO,8210 nM
same,type of XO inhibition,XO,competitive
same,IC50,xanthine oxidase [2],1680 nM
"O=C1c2c(O)cc(O)cc2O[C@H](c2ccccc2)[C@H]1O [Pinobanksin, pinobanksin]",type of XO inhibition,XO,competitive
"O=c1c(O)c(-c2ccc(O)c(O)c2)oc2cc(O)cc(O)c12 [Quercetin, quercetin]",IC50,XO,2920 nM
same,type of XO inhibition,XO,mixed-type
"O=C(/C=C/c1ccc(O)c(O)c1)O[C@H](Cc1ccc(O)c(O)c1)C(=O)O [Rosmarinic acid, rosmarinic acid]",IC50,xanthine oxidase [2],970 nM
same,m (slope of the median-effect plot),xanthine oxidase [1]; CompuSyn,1.78
same,EC50,xanthine oxidase [1]; [3],1040 nM
same,EC50,xanthine oxidase [1]; [4],970 nM
same,Dose of each drug alone required for the same effect,"xanthine oxidase [1]; Fa 16%, rosmarinic acid/allopurinol analysis",0.32 µM
same,Dose of each drug alone required for the same effect,"xanthine oxidase [1]; Fa 34%, rosmarinic acid/allopurinol analysis",0.72 µM
same,Dose of each drug alone required for the same effect,"xanthine oxidase [1]; Fa 42%, rosmarinic acid/febuxostat analysis",0.87 µM
same,Dose of each drug alone required for the same effect,"xanthine oxidase [1]; Fa 66%, rosmarinic acid/febuxostat analysis",1.78 µM
same,Dose of each drug alone required for the same effect,"xanthine oxidase [1]; Fa 69%, rosmarinic acid/allopurinol analysis",2.06 µM
same,Dose of each drug alone required for the same effect,"xanthine oxidase [1]; Fa 74%, rosmarinic acid/febuxostat analysis",2.35 µM
same,Dose of each drug alone required for the same effect,"xanthine oxidase [1]; Fa 82%, rosmarinic acid/febuxostat analysis",3.42 µM
same,Dose of each drug alone required for the same effect,"xanthine oxidase [1]; Fa 92%, rosmarinic acid/febuxostat analysis",6.21 µM
same,Dose of each drug alone required for the same effect,"xanthine oxidase [1]; Fa 93%, rosmarinic acid/allopurinol analysis",8.35 µM
same,Dose of each drug alone required for the same effect,"xanthine oxidase [1]; Fa 98%, rosmarinic acid/allopurinol analysis",21.32 µM
same,EC90,xanthine oxidase [1],5220 nM
same,EC10 dose,xanthine oxidase [1]; [5],260 nM
same,EC30 dose,xanthine oxidase [1]; [6],480 nM
same,EC70 dose,xanthine oxidase [1]; [7],2440 nM
"COc1cc(O)c2c(=O)cc(-c3ccccc3)oc2c1 [Techtochrysin, techtochrysin]",IC50,xanthine oxidase [2],84 nM
same,fold enhancement in XO inhibitory activity compared with allopurinol,xanthine oxidase [2]; from IC50 values of Table 5,10 folds
same,m (slope of the median-effect plot),xanthine oxidase [1]; CompuSyn,1.73
same,EC50,xanthine oxidase [1]; [3],81 nM
same,EC50,xanthine oxidase [1]; [4],84 nM
same,Dose of each drug alone required for the same effect,"xanthine oxidase [1]; Fa 19%, techtochrysin/allopurinol analysis",0.031 µM
same,Dose of each drug alone required for the same effect,"xanthine oxidase [1]; Fa 35%, techtochrysin/allopurinol analysis",0.064 µM
same,Dose of each drug alone required for the same effect,"xanthine oxidase [1]; Fa 53%, techtochrysin/febuxostat analysis",0.11 µM
same,Dose of each drug alone required for the same effect,"xanthine oxidase [1]; Fa 57%, techtochrysin/allopurinol analysis",0.15 µM
same,Dose of each drug alone required for the same effect,"xanthine oxidase [1]; Fa 69%, techtochrysin/febuxostat analysis",0.20 µM
same,Dose of each drug alone required for the same effect,"xanthine oxidase [1]; Fa 75%, techtochrysin/febuxostat analysis",0.25 µM
same,Dose of each drug alone required for the same effect,"xanthine oxidase [1]; Fa 84%, techtochrysin/febuxostat analysis",0.39 µM
same,Dose of each drug alone required for the same effect,"xanthine oxidase [1]; Fa 91%, techtochrysin/allopurinol analysis",0.98 µM
same,Dose of each drug alone required for the same effect,"xanthine oxidase [1]; Fa 94%, techtochrysin/febuxostat analysis",0.96 µM
same,Dose of each drug alone required for the same effect,"xanthine oxidase [1]; Fa 97%, techtochrysin/allopurinol analysis",3.19 µM
same,DRI,xanthine oxidase [1]; Fa […]% (70% effect level doses),3.51 fold
same,DRI,xanthine oxidase [1]; Fa […]% (90% effect level doses),3.63 fold
same,EC90,xanthine oxidase [1],880 nM
same,EC10 dose,xanthine oxidase [1]; [5],24 nM
same,EC30 dose,xanthine oxidase [1]; [6],46 nM
same,EC70 dose,xanthine oxidase [1]; [7],280 nM

# Reference: article PMC8979054 (RSC Advances, 2022)
